# Results: patent US6339042B1, “Herbicidal N-cyclohexadienyl heteroaryloxyacetamides” (American Cyanamid Co., priority 1999, dated 2002)
# How the values were obtained:
# Conditions in all cases: three weeks after treatment
# Alopecurus myosuroides [1] = test: Post-emergence herbicidal evaluation, ALOMY
# Experimental: (§2) The compounds of the invention are tested for pre- and post-emergence herbicidal activity.
# (§3) Each pot is examined three weeks after treatment and phytotoxicity is assessed according to the rating system set forth below.
# (§4) These acetone solutions are diluted with water and the resulting formulations applied at dosage levels equivalent of about 0.4 to 0.1 kg per hectare of test compound per pot. After spraying the plants are placed on greenhouse benches and are cared for in the usual manner, commensurate with conventional greenhouse practices.
# Amaranthus tuberculatus [2] = test: Post-emergence herbicidal evaluation, AMATA; type: in vivo
# Zea mays [3] = test: Pre-emergence herbicidal evaluation, ZEAMX; type: in vivo
# Excerpt: (§1) The treated pots are then placed on greenhouse benches, watered and cared for in accordance with conventional greenhouse procedures.
# Setaria viridis [4] = test: Pre-emergence herbicidal evaluation, SETVI; type: in vivo
# Excerpt: as §1
# Zea mays [5] = test: Post-emergence herbicidal evaluation, ZEAMX
# Setaria viridis [6] = test: Post-emergence herbicidal evaluation, SETVI
# Hordeum vulgare [7] = test: Pre-emergence herbicidal evaluation, HORVW; type: in vivo
# Excerpt: as §1
# Glycine max [8] = test: Post-emergence herbicidal evaluation, GLXMA
# Oryza sativum [9] = test: Post-emergence herbicidal evaluation, ORYSA
# Apera spica venti [10] = test: Pre-emergence herbicidal evaluation, APESV; type: in vivo
# Excerpt: as §1
# Lolium perenne [11] = test: Post-emergence herbicidal evaluation, LOLPE
# Experimental: as §3, §4
# Oryza sativum [12] = test: Pre-emergence herbicidal evaluation, ORYSA; type: in vivo
# Excerpt: as §1
# Triticum aestivum [13] = test: Pre-emergence herbicidal evaluation, TRZAW; type: in vivo
# Excerpt: as §1
# Echinochloa crus-galli [14] = test: Post-emergence herbicidal evaluation, ECHCG
# Experimental: as §2, §3, §4
# Galium aparine = test: Post-emergence herbicidal evaluation, GALAP
# Experimental: as §2, §3, §4
# Echinochloa crus-galli [15] = test: Pre-emergence herbicidal evaluation, ECHCG; type: in vivo
# Excerpt: as §1
# Lolium perenne [16] = test: Pre-emergence herbicidal evaluation, LOLPE; type: in vivo
# Excerpt: as §1
# Alopecurus myosuroides [17] = test: Pre-emergence herbicidal evaluation, ALOMY; type: in vivo
# Excerpt: as §1
# Hordeum vulgare [18] = test: Post-emergence herbicidal evaluation, HORVW
# Apera spica venti [19] = test: Post-emergence herbicidal evaluation, APESV
# Triticum aestivum [20] = test: Post-emergence herbicidal evaluation, TRZAW
# Experimental: as §3, §4
# Amaranthus tuberculatus [21] = test: Pre-emergence herbicidal evaluation, AMATA; type: in vivo
# Excerpt: as §1
# Glycine max [22] = test: Pre-emergence herbicidal evaluation, GLXMA; type: in vivo
# Excerpt: as §1
smiles,measurement,setting,value
CC1=CC(N(C)C(=O)COc2nnc(C(F)(F)C(F)(F)F)s2)=CC(C)(C)C1 [Example 7],phytotoxicity rating ALOMY,Alopecurus myosuroides [1]; 0.100 kg/ha,0 (0 - No effect)
same,phytotoxicity rating ALOMY,Alopecurus myosuroides [1]; 0.200 kg/ha,0 (0 - No effect)
same,phytotoxicity rating ALOMY,Alopecurus myosuroides [1]; 0.400 kg/ha,4 (4 - Injury)
same,phytotoxicity rating AMATA,Amaranthus tuberculatus [2]; 0.100 kg/ha,3 (3 - Moderate effect)
same,phytotoxicity rating AMATA,Amaranthus tuberculatus [2]; 0.200 kg/ha,3 (3 - Moderate effect)
same,phytotoxicity rating AMATA,Amaranthus tuberculatus [2]; 0.400 kg/ha,5 (5 - Definite injury)
same,phytotoxicity rating ZEAMX,Zea mays [3]; 0.100 kg/ha,0 (0 - No effect)
same,phytotoxicity rating ZEAMX,Zea mays [3]; 0.200 kg/ha,0 (0 - No effect)
same,phytotoxicity rating ZEAMX,Zea mays [3]; 0.400 kg/ha,0 (0 - No effect)
same,phytotoxicity rating ZEAMX,Zea mays [3]; 0.800 kg/ha,1 (1 - Trace effect)
same,phytotoxicity rating SETVI,Setaria viridis [4]; 0.100 kg/ha,0 (0 - No effect)
same,phytotoxicity rating SETVI,Setaria viridis [4]; 0.200 kg/ha,0 (0 - No effect)
same,phytotoxicity rating SETVI,Setaria viridis [4]; 0.400 kg/ha,0 (0 - No effect)
same,phytotoxicity rating SETVI,Setaria viridis [4]; 0.800 kg/ha,2 (2 - Slight effect)
same,phytotoxicity rating ZEAMX,Zea mays [5]; 0.100 kg/ha,0 (0 - No effect)
same,phytotoxicity rating ZEAMX,Zea mays [5]; 0.200 kg/ha,0 (0 - No effect)
same,phytotoxicity rating ZEAMX,Zea mays [5]; 0.400 kg/ha,0 (0 - No effect)
same,phytotoxicity rating SETVI,Setaria viridis [6]; 0.100 kg/ha,0 (0 - No effect)
same,phytotoxicity rating SETVI,Setaria viridis [6]; 0.200 kg/ha,0 (0 - No effect)
same,phytotoxicity rating SETVI,Setaria viridis [6]; 0.400 kg/ha,0 (0 - No effect)
same,phytotoxicity rating HORVW,Hordeum vulgare [7]; 0.100 kg/ha,0 (0 - No effect)
same,phytotoxicity rating HORVW,Hordeum vulgare [7]; 0.200 kg/ha,0 (0 - No effect)
same,phytotoxicity rating HORVW,Hordeum vulgare [7]; 0.400 kg/ha,1 (1 - Trace effect)
same,phytotoxicity rating HORVW,Hordeum vulgare [7]; 0.800 kg/ha,1 (1 - Trace effect)
same,phytotoxicity rating GLXMA,Glycine max [8]; 0.100 kg/ha,2 (2 - Slight effect)
same,phytotoxicity rating GLXMA,Glycine max [8]; 0.200 kg/ha,2 (2 - Slight effect)
same,phytotoxicity rating GLXMA,Glycine max [8]; 0.400 kg/ha,5 (5 - Definite injury)
same,phytotoxicity rating ORYSA,Oryza sativum [9]; 0.100 kg/ha,0 (0 - No effect)
same,phytotoxicity rating ORYSA,Oryza sativum [9]; 0.200 kg/ha,0 (0 - No effect)
same,phytotoxicity rating ORYSA,Oryza sativum [9]; 0.400 kg/ha,3 (3 - Moderate effect)
same,phytotoxicity rating APESV,Apera spica venti [10]; 0.200 kg/ha,0 (0 - No effect)
same,phytotoxicity rating APESV,Apera spica venti [10]; 0.400 kg/ha,0 (0 - No effect)
same,phytotoxicity rating APESV,Apera spica venti [10]; 0.800 kg/ha,7 (7 - Good herbicidal effect)
same,phytotoxicity rating LOLPE,Lolium perenne [11]; 0.100 kg/ha,0 (0 - No effect)
same,phytotoxicity rating LOLPE,Lolium perenne [11]; 0.200 kg/ha,6 (6 - Herbicidal effect)
same,phytotoxicity rating LOLPE,Lolium perenne [11]; 0.400 kg/ha,6 (6 - Herbicidal effect)
same,phytotoxicity rating ORYSA,Oryza sativum [12]; 0.100 kg/ha,0 (0 - No effect)
same,phytotoxicity rating ORYSA,Oryza sativum [12]; 0.200 kg/ha,0 (0 - No effect)
same,phytotoxicity rating ORYSA,Oryza sativum [12]; 0.400 kg/ha,0 (0 - No effect)
same,phytotoxicity rating ORYSA,Oryza sativum [12]; 0.800 kg/ha,2 (2 - Slight effect)
same,phytotoxicity rating TRZAW,Triticum aestivum [13]; 0.100 kg/ha,0 (0 - No effect)
same,phytotoxicity rating TRZAW,Triticum aestivum [13]; 0.200 kg/ha,0 (0 - No effect)
same,phytotoxicity rating TRZAW,Triticum aestivum [13]; 0.400 kg/ha,0 (0 - No effect)
same,phytotoxicity rating TRZAW,Triticum aestivum [13]; 0.800 kg/ha,0 (0 - No effect)
same,phytotoxicity rating ECHCG,Echinochloa crus-galli [14]; 0.100 kg/ha,0 (0 - No effect)
same,phytotoxicity rating ECHCG,Echinochloa crus-galli [14]; 0.200 kg/ha,0 (0 - No effect)
same,phytotoxicity rating ECHCG,Echinochloa crus-galli [14]; 0.400 kg/ha,0 (0 - No effect)
same,phytotoxicity rating GALAP,Galium aparine; 0.100 kg/ha,0 (0 - No effect)
same,phytotoxicity rating GALAP,Galium aparine; 0.200 kg/ha,3 (3 - Moderate effect)
same,phytotoxicity rating GALAP,Galium aparine; 0.400 kg/ha,5 (5 - Definite injury)
same,phytotoxicity rating ECHCG,Echinochloa crus-galli [15]; 0.100 kg/ha,0 (0 - No effect)
same,phytotoxicity rating ECHCG,Echinochloa crus-galli [15]; 0.200 kg/ha,0 (0 - No effect)
same,phytotoxicity rating ECHCG,Echinochloa crus-galli [15]; 0.400 kg/ha,6 (6 - Herbicidal effect)
same,phytotoxicity rating ECHCG,Echinochloa crus-galli [15]; 0.800 kg/ha,9 (9 - Complete kill)
same,phytotoxicity rating LOLPE,Lolium perenne [16]; 0.100 kg/ha,0 (0 - No effect)
same,phytotoxicity rating LOLPE,Lolium perenne [16]; 0.200 kg/ha,0 (0 - No effect)
same,phytotoxicity rating LOLPE,Lolium perenne [16]; 0.400 kg/ha,3 (3 - Moderate effect)
same,phytotoxicity rating LOLPE,Lolium perenne [16]; 0.800 kg/ha,9 (9 - Complete kill)
same,phytotoxicity rating ALOMY,Alopecurus myosuroides [17]; 0.100 kg/ha,0 (0 - No effect)
same,phytotoxicity rating ALOMY,Alopecurus myosuroides [17]; 0.200 kg/ha,2 (2 - Slight effect)
same,phytotoxicity rating ALOMY,Alopecurus myosuroides [17]; 0.400 kg/ha,5 (5 - Definite injury)
same,phytotoxicity rating ALOMY,Alopecurus myosuroides [17]; 0.800 kg/ha,5 (5 - Definite injury)
same,phytotoxicity rating HORVW,Hordeum vulgare [18]; 0.100 kg/ha,0 (0 - No effect)
same,phytotoxicity rating HORVW,Hordeum vulgare [18]; 0.200 kg/ha,0 (0 - No effect)
same,phytotoxicity rating HORVW,Hordeum vulgare [18]; 0.400 kg/ha,0 (0 - No effect)
same,phytotoxicity rating APESV,Apera spica venti [19]; 0.100 kg/ha,0 (0 - No effect)
same,phytotoxicity rating APESV,Apera spica venti [19]; 0.200 kg/ha,0 (0 - No effect)
same,phytotoxicity rating APESV,Apera spica venti [19]; 0.400 kg/ha,2 (2 - Slight effect)
same,phytotoxicity rating TRZAW,Triticum aestivum [20]; 0.100 kg/ha,0 (0 - No effect)
same,phytotoxicity rating TRZAW,Triticum aestivum [20]; 0.200 kg/ha,0 (0 - No effect)
same,phytotoxicity rating TRZAW,Triticum aestivum [20]; 0.400 kg/ha,0 (0 - No effect)
same,phytotoxicity rating AMATA,Amaranthus tuberculatus [21]; 0.100 kg/ha,0 (0 - No effect)
same,phytotoxicity rating AMATA,Amaranthus tuberculatus [21]; 0.200 kg/ha,0 (0 - No effect)
same,phytotoxicity rating AMATA,Amaranthus tuberculatus [21]; 0.400 kg/ha,3 (3 - Moderate effect)
same,phytotoxicity rating AMATA,Amaranthus tuberculatus [21]; 0.800 kg/ha,3 (3 - Moderate effect)
same,phytotoxicity rating GLXMA,Glycine max [22]; 0.100 kg/ha,0 (0 - No effect)
same,phytotoxicity rating GLXMA,Glycine max [22]; 0.200 kg/ha,0 (0 - No effect)
same,phytotoxicity rating GLXMA,Glycine max [22]; 0.400 kg/ha,0 (0 - No effect)
same,phytotoxicity rating GLXMA,Glycine max [22]; 0.800 kg/ha,0 (0 - No effect)
